In article PMC9224473 (International Journal of Molecular Sciences, 2022):
Values after ≈ are worked out from the molar mass of the structure shown.

Experiments:
E. coli 520 = assay: MIC, broth microdilution, clinical strain; type: cell-based, Escherichia coli; conditions: Escherichia coli, 520, 19 h, 35 °C
[1] = system: SW620 (human metastatic colon cancer); assay: MTT cytotoxicity assay; type: cell-based; conditions: Homo sapiens, SW-620, 72 h, mean SD
Description: (§1) The human cell lines SW480 (primary colon cancer), SW620 (lymph node metastatic colon cancer from the same patient as primary cancer cells), HCT116 (colon carcinoma), HepG2 (liver cancer), and HaCaT (immortalized keratinocytes) were obtained from the American Type Culture Collection (ATCC, Rockville, MD, USA). The SW480, SW620 and HCT116 cells were grown in MEM (ThermoSci, Waltham, MA, USA), HepG2 and HaCaT in DMEM High Glucose (Biowest SAS, Nuaillé, France) supplemented with 10% foetal bovine serum (FBS), HEPES (20 mM), and antibiotics (100 U mL^−1 of Penicillin and 100 μg mL^−1 of Streptomycin). The cells were incubated in a humidified incubator at 37 °C/5% CO2, until 80–90% confluence was reached.
The cell viability was assessed by using of MTT salt [3-(4,5-dimethylthiazol-2-yl)-2,5-diphenyltetrazolium bromide] converted by mitochondrial dehydrogenase, occurring in living cells. […] The untreated cells were used as the control.
(§2) Subsequently, the medium was removed and dimethyl sulfoxide (DMSO) with isopropanol (1:1) was added to dissolve the formazan crystals. The optical density was measured using UVM 340 reader (ASYS Hitech GmbH, Eugendorf, Austria) at a wavelength of 570 nm. The experiments were repeated three times. The cell viability was calculated as the percent of MTT reduced in treated cells versus control cells (untreated cells). The number of viable cells cultured without tested compounds was assumed as 100%. A decreased relative MTT level indicates decreased cell viability. The IC50 values were estimated using CompuSyn version 1.0.

S. pasteuri KR 4358 = assay: MIC, broth microdilution, clinical strain; type: cell-based, Staphylococcus pasteuri; conditions: Staphylococcus pasteuri, KR4358, 19 h, 35 °C
[2] = system: S. epidermidis ATCC 35984; assay: MIC, broth microdilution, standard strain; type: cell-based, Staphylococcus epidermidis; conditions: Staphylococcus epidermidis, ATCC35984, 19 h, 35 °C
E. coli 510 = assay: MIC, broth microdilution, clinical strain; type: cell-based, Escherichia coli; conditions: Escherichia coli, 510, 19 h, 35 °C
S. aureus NCTC 4163 = assay: MIC, broth microdilution, standard strain; type: cell-based, Staphylococcus aureus; conditions: Staphylococcus aureus, NCTC4163, 19 h, 35 °C
[3] = system: HepG2 (human liver cancer); assay: MTT cytotoxicity assay; type: cell-based; conditions: Homo sapiens, HepG2, 72 h, mean SD
Description: as §1
(§3) The cell viability was assessed by using of MTT salt [3-(4,5-dimethylthiazol-2-yl)-2,5-diphenyltetrazolium bromide] converted by mitochondrial dehydrogenase, occurring in living cells. The cells were seeded in 96-well plates at a density of 1 × 10^4 cells per well and allowed to adhere for 24 h at 37 °C in a CO2 humidified incubator. […]. The untreated cells were used as the control.
as §2, with “After 72 h incubation, the medium was replaced with 200 µL per well of free-serum medium containing 0.5 mg mL^−1 MTT and incubated for 4 h at 37 °C in a CO2 humidified incubator. Subsequently,” for “Subsequently,”

[4] = system: SW480 (human primary colon cancer); assay: MTT cytotoxicity assay; type: cell-based; conditions: Homo sapiens, SW480, 72 h, mean SD
Description: as §1, §3
as §2, with “After 72 h incubation, the medium was replaced with 200 µL per well of free-serum medium containing 0.5 mg mL^−1 MTT and incubated for 4 h at 37 °C in a CO2 humidified incubator. Subsequently,” for “Subsequently,”

[5] = system: HaCaT (human immortal keratinocyte cell line); assay: MTT cytotoxicity assay; type: cell-based; conditions: Homo sapiens, HaCaT, 72 h, mean SD, read-out: IC50 HaCaT (normal cells)
Description: as §1, §3
as §2, with “After 72 h incubation, the medium was replaced with 200 µL per well of free-serum medium containing 0.5 mg mL^−1 MTT and incubated for 4 h at 37 °C in a CO2 humidified incubator. Subsequently,” for “Subsequently,”

[6] = system: HCT116 (human colon cancer); assay: MTT cytotoxicity assay; type: cell-based; conditions: Homo sapiens, HCT-116, 72 h, mean SD
Description: as §1, §3
as §2, with “After 72 h incubation, the medium was replaced with 200 µL per well of free-serum medium containing 0.5 mg mL^−1 MTT and incubated for 4 h at 37 °C in a CO2 humidified incubator. Subsequently,” for “Subsequently,”

[7] = system: S. epidermidis ATCC 12228; assay: MIC, broth microdilution, standard strain; type: cell-based, Staphylococcus epidermidis; conditions: Staphylococcus epidermidis, ATCC12228, 19 h, 35 °C
S. aureus ATCC 29213 = assay: MIC, broth microdilution, standard strain; type: cell-based, Staphylococcus aureus; conditions: Staphylococcus aureus, ATCC29213, 19 h, 35 °C
E. coli ATCC 25922 = assay: MIC, broth microdilution, standard strain; type: cell-based, Escherichia coli; conditions: 35 °C; for MIC: Escherichia coli, ATCC25922, 19 h; for MIC E. coli ATCC 25922: 19 h
P. aeruginosa 659 = assay: MIC, broth microdilution, clinical strain; type: cell-based, Pseudomonas aeruginosa; conditions: Pseudomonas aeruginosa, 659, read-out: MIC P. aeruginosa 659, 19 h, 35 °C
S. aureus ATCC 6538 = assay: MIC, broth microdilution, standard strain; type: cell-based, Staphylococcus aureus; conditions: Staphylococcus aureus, ATCC6538, 19 h, 35 °C
S. aureus T 5595 = assay: MIC, broth microdilution, clinical strain; type: cell-based, Staphylococcus aureus; conditions: Staphylococcus aureus, T5595, 19 h, 35 °C
S. epidermidis KR 4243 = assay: MIC, broth microdilution, clinical strain; type: cell-based, Staphylococcus epidermidis; conditions: Staphylococcus epidermidis, KR4243, 19 h, 35 °C
E. coli 600 = assay: MIC, broth microdilution, clinical strain; type: cell-based, Escherichia coli; conditions: Escherichia coli, 600, 19 h, 35 °C
S. aureus ATCC 25923 = assay: MIC, broth microdilution, standard strain; type: cell-based, Staphylococcus aureus; conditions: Staphylococcus aureus, ATCC25923, 19 h, 35 °C
S. aureus T 5591 = assay: MIC, broth microdilution, clinical strain; type: cell-based, Staphylococcus aureus; conditions: Staphylococcus aureus, T5591, 19 h, 35 °C
P. aeruginosa ATCC 15442 = assay: MIC, broth microdilution, standard strain; type: cell-based, Pseudomonas aeruginosa; conditions: Pseudomonas aeruginosa, ATCC15442, 19 h, 35 °C

Compound: CC(C)[C@@H]1CC[C@@H](C)C[C@H]1OC(=O)CN1CCN(c2cc3c(cc2F)c(=O)c(C(=O)O)cn3C2CC2)CC1 [Compound 2, 1-cyclopropyl-6-fluoro-7-{4-[2-((1R,2S,5R)-2-isopropyl-5-methylcyclohexyloxy)-2-oxoethyl]piperazin-1-yl}-4-oxo-1,4-dihydroquinoline-3-carboxylic acid]
- MIC (E. coli 520): 16 µg/mL (≈ 30.3 µM)
- IC50 [1]: 26.7 ± 0.2 µM
- MIC (S. pasteuri KR 4358): 16 µg/mL (≈ 30.3 µM)
- MIC [2]: 16 µg/mL (≈ 30.3 µM)
- MIC (E. coli 510): > 256 µg/mL
- MIC (S. aureus NCTC 4163): 16 µg/mL (≈ 30.3 µM)
- IC50 [3]: 16.5 ± 0.4 µM
- IC50 [4]: 36 ± 2.9 µM
- IC50 [5]: 25.7 ± 3 µM
- IC50 [6]: 32.3 ± 1.5 µM
- MIC [7]: 16 µg/mL (≈ 30.3 µM)
- MIC (S. aureus ATCC 29213): 16 µg/mL (≈ 30.3 µM)
- MIC (E. coli ATCC 25922): 8 µg/mL (≈ 15.2 µM)
- MIC (P. aeruginosa 659): 128 µg/mL (≈ 243 µM)
- MIC (S. aureus ATCC 6538): 16 µg/mL (≈ 30.3 µM)
- MIC (S. aureus T 5595): 16 µg/mL (≈ 30.3 µM)
- MIC (S. epidermidis KR 4243): 16 µg/mL (≈ 30.3 µM)
- MIC (E. coli 600): 16 µg/mL (≈ 30.3 µM)
- MIC (S. aureus ATCC 25923): 16 µg/mL (≈ 30.3 µM)
- MIC (S. aureus T 5591): 16 µg/mL (≈ 30.3 µM)
- MIC (P. aeruginosa ATCC 15442): 128 µg/mL (≈ 243 µM)

Compound: CC(C)[C@@H]1CC[C@@H](C)C[C@H]1OC(=O)CCN1CCN(c2cc3c(cc2F)c(=O)c(C(=O)O)cn3C2CC2)CC1 [Compound 3, 1-cyclopropyl-6-fluoro-7-{4-[3-((1R,2S,5R)-2-isopropyl-5-methylcyclohexyloxy)-3-oxopropyl]piperazin-1-yl}-4-oxo-1,4-dihydroquinoline-3-carboxylic acid]
- MIC (E. coli 520): 4 µg/mL (≈ 7.38 µM)
- IC50 [1]: 38.6 ± 3.8 µM
- MIC (S. pasteuri KR 4358): 4 µg/mL (≈ 7.38 µM)
- MIC [2]: 4 µg/mL (≈ 7.38 µM)
- MIC (E. coli 510): 256 µg/mL (≈ 473 µM)
- MIC (S. aureus NCTC 4163): 4 µg/mL (≈ 7.38 µM)
- IC50 [3]: 36.8 ± 3.8 µM
- IC50 [4]: 30.3 ± 1.2 µM
- IC50 [5]: 45.5 ± 5.1 µM
- IC50 [6]: 27.1 ± 3.1 µM
- MIC [7]: 4 µg/mL (≈ 7.38 µM)
- MIC (S. aureus ATCC 29213): 4 µg/mL (≈ 7.38 µM)
- MIC E. coli ATCC 25922 (E. coli ATCC 25922): 4 µg/mL (≈ 7.38 µM)
- MIC (E. coli ATCC 25922): 2 to 4 µg/mL (≈ 3.69 to 7.38 µM)
- MIC (P. aeruginosa 659): 64 µg/mL (≈ 118 µM)
- MIC (S. aureus ATCC 6538): 4 µg/mL (≈ 7.38 µM)
- MIC (S. aureus T 5595): 4 µg/mL (≈ 7.38 µM)
- MIC (S. epidermidis KR 4243): 4 µg/mL (≈ 7.38 µM)
- MIC (E. coli 600): 4 µg/mL (≈ 7.38 µM)
- MIC (S. aureus ATCC 25923): 4 µg/mL (≈ 7.38 µM)
- MIC (S. aureus T 5591): 4 µg/mL (≈ 7.38 µM)
- MIC (P. aeruginosa ATCC 15442): 32 µg/mL (≈ 59.1 µM)

Compound: CC(C)[C@@H]1CC[C@@H](C)C[C@H]1OC(=O)CCCN1CCN(c2cc3c(cc2F)c(=O)c(C(=O)O)cn3C2CC2)CC1 [Compound 4, 1-cyclopropyl-6-fluoro-7-{4-[4-((1R,2S,5R)-2-isopropyl-5-methylcyclohexyloxy)-4-oxobutyl]piperazin-1-yl}-4-oxo-1,4-dihydroquinoline-3-carboxylic acid]
- MIC (E. coli 520): 8 µg/mL (≈ 14.4 µM)
- IC50 [1]: 54.3 ± 4.1 µM
- MIC (S. pasteuri KR 4358): 4 µg/mL (≈ 7.2 µM)
- MIC [2]: 4 µg/mL (≈ 7.2 µM)
- MIC (E. coli 510): 256 µg/mL (≈ 461 µM)
- MIC (S. aureus NCTC 4163): 4 µg/mL (≈ 7.2 µM)
- IC50 [3]: 35.1 ± 4.4 µM
- IC50 [4]: 36.8 ± 2.6 µM
- IC50 [5]: 30.5 ± 2.4 µM
- IC50 [6]: 24.2 ± 0.1 µM
- MIC [7]: 4 µg/mL (≈ 7.2 µM)
- MIC (S. aureus ATCC 29213): 4 µg/mL (≈ 7.2 µM)
- MIC E. coli ATCC 25922 (E. coli ATCC 25922): 4 µg/mL (≈ 7.2 µM)
- MIC (E. coli ATCC 25922): 2 to 4 µg/mL (≈ 3.6 to 7.2 µM)
- MIC (P. aeruginosa 659): 256 µg/mL (≈ 461 µM)
- MIC (S. aureus ATCC 6538): 4 µg/mL (≈ 7.2 µM)
- MIC (S. aureus T 5595): 4 µg/mL (≈ 7.2 µM)
- MIC (S. epidermidis KR 4243): 4 µg/mL (≈ 7.2 µM)
- MIC (E. coli 600): 4 µg/mL (≈ 7.2 µM)
- MIC (S. aureus ATCC 25923): 4 µg/mL (≈ 7.2 µM)
- MIC (S. aureus T 5591): 4 µg/mL (≈ 7.2 µM)
- MIC (P. aeruginosa ATCC 15442): 64 µg/mL (≈ 115 µM)

Compound: COc1cccc2c1C(=O)c1c(O)c3c(c(O)c1C2=O)C[C@@](O)(C(=O)CO)C[C@@H]3O[C@H]1C[C@H](N)[C@H](O)[C@H](C)O1 [Doxorubicin, reference compound]
- IC50 [3]: 0.38 µM
- IC50 [4]: 0.75 ± 0.1 µM
- IC50 [5]: 0.29 ± 0.1 µM
- IC50 [6]: 0.59 ± 0.02 µM
